According to patent US10016424B2, “Method and pharmaceutical composition for use in the treatment of epilepsy” (INSERM (Institut National de la Sante et de la Recherche …, priority 2013, dated 2018):

Test system: bursts driven by recurrent mossy fibers in DG
Assay: Antidromically evoked bursts (coastline burst index) in dentate gyrus of acute slices from pilocarpine-treated mice
Format: cell-based, mouse
Settings: WT mice; bath application
Method: All experiments were approved by the Institut National de la Santé et de la Recherche Médicale animal care and use committee of May 29, 2001 (2001-464) and the European community council directive of Nov. 24, 1986 (86/609/EEC). Mice (FVB/N background) had access to food and water ad libitum and were housed under a 12 h light/dark cycle at 22-24° C. Male GluK2−/− and WT mice (P60-80) were given scopolamine (1 mg/kg) subcutaneously (s.c.) 15 minutes prior to s.c. administration of pilocarpine (200-600 mg/kg). A ramp protocol was used whereby animals were given an initial dose of 200 mg/kg followed by half-doses every 30 minutes until seizures appeared. […] Diazepam (10 mg/kg) was administered 45 minutes after onset of SE. […]
Cultured or acute slices were individually transferred to a recording chamber maintained at 30-32° C. and continuously perfused (2 ml/min) with oxygenated normal or adapted ACSF containing 5 μM gabazine. […] Signals were analyzed off-line using Clampfit 9.2 (PClamp) and MiniAnalysis 6.0.1 (Synaptosoft, Decatur, Ga.). In organotypic slices, spontaneous EPSCs were recorded at the reversal potential for GABAergic currents (Vh=−70 mV). To characterize the nature and kinetic properties of fast and slow events, miniature EPSCs (mEPSCs) evoked in Sr2+ conditions (external Ca2+ was substituted with 1.2 mM Sr2+) were recorded in DGCs from GluK2−/− and WT slices. […]

Which “reduction of evoked bursts (coastline burst index)” value does the source give for `Cc1cn(C[C@H](N)C(=O)O)c(=O)n(Cc2ccsc2C(=O)O)c1=O` [UBP310] here?
Its value is 55%.
